Data published in patent publication US4310660A, “Lincomycin compounds” (The Upjohn Company, priority 1980, dated 1982).
Structures can show the parent of a compound that is named as a salt. Where two headings read alike, the source gives them in different places.

Columns and labels:
Propionibacterium acnes = experiment: MIC vs. anaerobic bacteria, agar dilution; type: cell-based; details: Cutibacterium acnes
S. aureus = experiment: Mouse Protection Test; type: in vivo; details: Staphylococcus aureus
Text: (§1) Immediately before use, the suspensions were thawed quickly and properly diluted. Infection was via the intrapertioneal route.
(§2) Treatment of the infected groups was begun immediately and continued once per day for 4 days (first 24 hr period=1). Groups of untreated mice served as virulence controls for the culture.
(§3) Seven days after the treatment regimen was begun the surviving animals were sacrificed and the median protective dose of the antibiotic calculated on the basis of mortality rates in the treatment groups. The median protective dose and its 95% confidence interval were calculated according to the method of Spearmen & Karber as programmed on a 360 digital computer.

K. pneumoniae = experiment: Mouse Protection Test; type: in vivo; details: Klebsiella pneumoniae, 168 h; route not given; once per day for 4 days; read-out: CD50 (median protective dose)
Text: as §1, §2, §3

S. hemolyticus = experiment: Mouse Protection Test; type: in vivo; details: for ED50: 168 h
Text: as §1, §2, §3

Peptococcus aerogenes = experiment: MIC vs. anaerobic bacteria, agar dilution; type: cell-based; details: Peptoniphilus asaccharolyticus, UC6319, UC 6319, read-out: Minimal Inhibitory Concentration (MIC)
D. pneumoniae I = experiment: Mouse Protection Test; type: in vivo; details: Streptococcus pneumoniae, 168 h, strain Felton I, read-out: Median Protective Dose (CD50)
Text: as §1, §2, §3
(§4) U-60,970E was also tested in vivo in standard laboratory mice which were experimentally infected with bacteria. The test was conducted in comparison with U-57,930E.

D. pneumoniae III = experiment: Mouse Protection Test; type: in vivo; details: strain MPI III, two experiments listed; for ED50: Streptococcus pneumoniae, 168 h, read-out: Median Protective Dose (CD50); for Median Protective Dose (CD50): 10080 min, listed as U-57930E . Hcl
Text: as §1, §2, §3, §4

Fusobacterium nucleatum = experiment: MIC vs. anaerobic bacteria, agar dilution; type: cell-based
Peptococcus magnus = experiment: MIC vs. anaerobic bacteria, agar dilution; type: cell-based; details: Finegoldia magna, UC6258, UC 6258, read-out: Minimal Inhibitory Concentration (MIC)
[1] = Acute I.P. toxicity in the mouse (LD50); type: in vivo
Text: This value is the resulting mean of two separate and identical LD50 determinations.

Actinomyces naeslundii = experiment: MIC vs. anaerobic bacteria, agar dilution; type: cell-based; details: UC5920, read-out: Minimal Inhibitory Concentration (MIC)
Clostridium botulinum A = experiment: microbe, parasite or virus in culture; type: cell-based; details: UC6506, read-out: Minimal Inhibitory Concentration (MIC)
Clostridium difficile = experiment: MIC vs. anaerobic bacteria, agar dilution; type: cell-based; details: Clostridioides difficile
Fusobacterium varium = experiment: MIC vs. anaerobic bacteria, agar dilution; type: cell-based; details: UC6052, UC 6052, read-out: Minimal Inhibitory Concentration (MIC)
Clostridium perfringens = experiment: microbe, parasite or virus in culture; type: cell-based
Clostridium sordellii = experiment: MIC vs. anaerobic bacteria, agar dilution; type: cell-based; details: Paraclostridium sordellii, UC6505, UC 6505, read-out: Minimal Inhibitory Concentration (MIC)
Description: (§5) The procedure for the above test is as follows: Serial two-fold dilutions of drug are prepared in 1.0 ml volumes of Schaedler Broth, and 9.0 ml of molten (47° C.) Wilkens-Chalgren Agar Medium, infra, is added to the antibiotic-supplemented broth. After mixing with the antibiotic, the agar is poured into 100 mm×20 mm petri dishes. The dishes are allowed to stand on the bench overnight prior to inoculation.
(§6) Cultures are streaked on Wilkens-Chalgren Agar, and grown for 48 hours at 37° C. in a BBL Anaerobe Jar. Growth from the plate is harvested, and a cell suspension is made in Schaedler broth to equal the turbidity of a 0.5 McFarland Standard (10^8 cells/ml). The suspension is pipetted into the wells of a Steers replicator, and approx. 1-2 μl is delivered to the surface of the agar plates. After allowing a few minutes for the inoculum to dry, the plates are placed in a BBL Anaerobe Jar (atomsphere of 85% N, 10% H, 5% CO2) and incubated at 37° C. for 72 hours.
(§7) The Minimal Inhibitory Concentration (MIC) is read as the least amount of drug that inhibits growth. A very faint film of growth, or <3 is colonies is considered negative.

Clostridium tentani = experiment: MIC vs. anaerobic bacteria, agar dilution; type: cell-based; details: UC6521, UC 6521, read-out: Minimal Inhibitory Concentration (MIC)
Description: as §5, §6, §7

Clostridium novyi B = experiment: MIC vs. anaerobic bacteria, agar dilution; type: cell-based; details: UC6329, UC 6329, read-out: Minimal Inhibitory Concentration (MIC)
Description: as §5, §6, §7

[2] = tested on: Fusobacterium necrophorum; experiment: MIC vs. anaerobic bacteria, agar dilution; type: cell-based; details: UC6568, UC 6568, read-out: Minimal Inhibitory Concentration (MIC)
Clostridium tertium = experiment: MIC vs. anaerobic bacteria, agar dilution; type: cell-based; details: UC6508, UC 6508, read-out: Minimal Inhibitory Concentration (MIC)
[3] = tested on: Bacteroides thetaiotaomicon; experiment: MIC vs. anaerobic bacteria, agar dilution; type: cell-based; details: UC6512, UC 6512, read-out: Minimal Inhibitory Concentration (MIC)
[4] = tested on: Peptostreptococcus anaerobius; experiment: MIC vs. anaerobic bacteria, agar dilution; type: cell-based; details: UC6321, UC 6321, read-out: Minimal Inhibitory Concentration (MIC)

`CC[C@@H]1CCN[C@H](C(=O)N[C@@H]([C@H]2O[C@H](SC)[C@H](O)[C@@H](O)[C@H]2O)[C@H](C)Cl)C1` [U-57,930E, 4-Cis-ethyl-1-pipecolic acid amide of 7-Cl-MTL.HCl] gave an MIC (Propionibacterium acnes; UC6564, UC 6564, read-out: Minimal Inhibitory Concentration (MIC)) of 0.12 µg/mL, an MIC (Propionibacterium acnes; UC6575, UC 6575, read-out: Minimal Inhibitory Concentration (MIC)) of 0.06 µg/mL and an ED50 (S. aureus; 168 h, oral, once per day for 4 days, 95% confidence interval, read-out: CD50 (median protective dose)) of 1 to 5 mg/kg. The ED50 (S. aureus; UC76, 168 h, strain UC 76, oral, read-out: Median Protective Dose (CD50)) was 8.12 mg/kg, the ED50 (S. aureus; UC76, sc, 168 h, strain UC 76, subcutaneous, read-out: Median Protective Dose (CD50)) was 1.07 mg/kg and the ED50 (S. aureus; sc, 168 h, read-out: CD50 (median protective dose)) was less than 5 mg/kg. It also gave an ED50 (K. pneumoniae) greater than 320 mg/kg, an ED50 (S. hemolyticus; oral, once per day for 4 days, 95% confidence interval, read-out: CD50 (median protective dose)) of 2.9 mg/kg and an ED50 (S. hemolyticus; strain C203, oral, read-out: Median Protective Dose (CD50)) of 3.79 mg/kg. For the same compound, the “Ratio (clindamycin / U-57930A CD50)” value (S. hemolyticus; oral) was 4.2, the ED50 (S. hemolyticus; sc, strain C203, subcutaneous, read-out: Median Protective Dose (CD50)) was 0.38 mg/kg and the ED50 (S. hemolyticus; sc, subcut., once per day for 4 days, 95% confidence interval, two experiments listed, read-out: CD50 (median protective dose)) was 0.25 mg/kg. It also gave an MIC (Peptococcus aerogenes) of 0.06 µg/mL, an ED50 (D. pneumoniae I; oral) of 15.4 mg/kg and an ED50 (D. pneumoniae I; sc, subcutaneous) of 1.54 mg/kg. The ED50 (D. pneumoniae III; po, oral) was 14.4 mg/kg, the ED50 (D. pneumoniae III; sc, subcutaneous) was 2.68 mg/kg and the “Median Protective Dose (CD50)” value (D. pneumoniae III; oral) was 16.49 (10.51-25.88) mg/kg. The “Median Protective Dose (CD50)” value (D. pneumoniae III; subcutaneous) was 2.5 (1.69-3.69) mg/kg, the MIC (Fusobacterium nucleatum; UC6324, UC 6324, read-out: Minimal Inhibitory Concentration (MIC)) was 0.06 µg/mL and the MIC (Fusobacterium nucleatum; UC6516, UC 6516, read-out: Minimal Inhibitory Concentration (MIC)) was 0.12 µg/mL. For the same compound, the MIC (Peptococcus magnus) was 0.06 µg/mL, the “LD50 as multiple of the LD50 for clindamycin HCl” value [1] was “approximately 2 times” and the “acute I.P. toxicity relative to clindamycin HCl” value [1] was “approximately one-half”. It also gave an LD50 ([1]; in vivo, ip, mean of two determinations) of 592 mg/kg, an MIC (Actinomyces naeslundii) of 0.25 µg/mL and an MIC (Clostridium botulinum A) of no more than 0.03 µg/mL. For the same compound, the MIC (Clostridium difficile; UC6834, UC 6834, read-out: Minimal Inhibitory Concentration (MIC)) was 3.9 µg/mL, the MIC (Clostridium difficile; UC6857, UC 6857, read-out: Minimal Inhibitory Concentration (MIC)) was 125 µg/mL and the MIC (Clostridium difficile; UC6858, UC 6858, read-out: Minimal Inhibitory Concentration (MIC)) was 3.9 µg/mL. The MIC (Clostridium difficile; UC6860, UC 6860, read-out: Minimal Inhibitory Concentration (MIC)) was 500 µg/mL, the MIC (Clostridium difficile; UC6861, UC 6861, read-out: Minimal Inhibitory Concentration (MIC)) was 2 µg/mL and the MIC (Fusobacterium varium) was 3.9 µg/mL. For the same compound, the MIC (Clostridium perfringens; UC247, read-out: Minimal Inhibitory Concentration (MIC)) was 0.12 µg/mL, the MIC (Clostridium perfringens; UC6509, read-out: Minimal Inhibitory Concentration (MIC)) was 0.12 µg/mL and the MIC (Clostridium sordellii) was 0.5 µg/mL. It also gave an MIC (Clostridium tentani) of no more than 0.03 µg/mL, an MIC (Clostridium novyi B) of 0.12 µg/mL and an MIC [2] of 0.06 µg/mL. The MIC (Clostridium tertium) was 7.8 µg/mL, the MIC [3] was 0.5 µg/mL and the MIC [4] was 0.12 µg/mL.
